In PMC9019904, “AD Informer Set: Chemical tools to facilitate Alzheimer's disease drug discovery” (Alzheimer's & Dementia : Translational Research & Clinical …, 2022):

What was measured:
[1] = tested on: HMC3 (human microglia) cell line; assay: pHrodo-myelin phagocytosis/cell viability high content imaging assay: phagocytosis signal; type: cell-based
Procedure, shortened: (§1)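 Mouse BV2 and human HMC3 microglia given pHrodo-myelin; phagocytosis and cell viability imaged together by high content imaging about 22 hours after myelin addition. Three measurements extracted, including intensity increase and decrease marking early and later apoptosis.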

[2] = tested on: BV2 (mouse microglia) cell line; assay: as above; type: cell-based
Procedure, shortened: as §1

[3] = tested on: HMC3 (human microglia) cell line; assay: pHrodo-myelin phagocytosis/cell viability high content imaging assay: viability (cell count, nuclear area, nuclear intensity); conditions: 48 hours treatment
Procedure, shortened: (§2)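 Duplicate single-point screen at 10 μM over 48 h, combined with pHrodo-myelin phagocytosis during the last 20 h. Cytotoxicity is taken from imaged cell counts and nuclear intensity changes, normalized to untreated wells as % control.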

[4] = tested on: BV2 (mouse microglia) cell line; assay: as above; conditions: 48 hours treatment
Procedure, shortened: as §2

[5] = HMC3 cells, 10 uM compound, 48 hours treatment, pHrodo-myelin final 20 hours
[6] = BV2 cells, 10 uM compound, 48 hours treatment, pHrodo-myelin final 20 hours
[7] = HMC3, compound 10 uM, pHrodo-myelin
[8] = BV2, compound 10 uM, pHrodo-myelin

Compound	4. Phagocytosis (% control) [1, 5] [% control]	4. Phagocytosis (% control) [2, 6] [% control]	1. Cell count (% control) ([3]; HMC3 cells, 10 uM compound)	2. Nuclear Area (% Control) ([3]; HMC3 cells, 10 uM compound)	3. Nuclear DNA Intensity (% control) ([3]; HMC3 cells, 10 uM compound)	1. Cell count (% control) ([4]; BV2 cells, 10 uM compound)	2. Nuclear Area (% Control) ([4]; BV2 cells, 10 uM compound)	3. Nuclear DNA Intensity (% control) ([4]; BV2 cells, 10 uM compound)	4. Phagocytosis (% control) [1, 7] [% control]	4. Phagocytosis (% control) [2, 8] [% control]	1. Cell count (% control) ([3]; HMC3, compound 10 uM)	2. Nuclear Area (% Control) ([3]; HMC3, compound 10 uM)	3. Nuclear DNA Intensity (% control) ([3]; HMC3, compound 10 uM)	1. Cell count (% control) ([4]; BV2, compound 10 uM)	2. Nuclear Area (% Control) ([4]; BV2, compound 10 uM)	3. Nuclear DNA Intensity (% control) ([4]; BV2, compound 10 uM)
O=C(Nc1ccc2[nH]nc(-c3ccncc3)c2c1)[C@@H]1CCN(CC(=O)N2CCN(c3ccc(-c4ncccn4)cc3)CC2)C1 [UNC10302854A]	37.1	359.5	103.4	110.6	94.1	43.5	114.7	111.9	–	–	–	–	–	–	–	–
C[C@H](N/C(=N\c1cccc2ncccc12)NC#N)c1ccccc1 [UNC10302855A]	63.4	124.5	114.9	101.2	97.7	130.8	103.4	103.1	–	–	–	–	–	–	–	–
O=C(Nc1ccc([N+](=O)[O-])cc1Cl)c1cc(Cl)ccc1O [UNC10302856A]	50.1	133.2	150.0	101.6	94.0	132.8	104.4	103.0	–	–	–	–	–	–	–	–
COS(=O)(=O)[O-].C[n+]1c2ccccc2nc2ccccc21 [UNC10302857A]	0.031	27.9	60.7	61.5	197.5	16.9	123.3	59.8	–	–	–	–	–	–	–	–
CNC(=O)[C@H](Cc1c[nH]c2ccccc12)NC(=O)[C@@H](CC(=O)NO)CC(C)C [UNC10302858A]	82.4	100.0	86.0	95.1	101.4	101.6	102.8	98.5	–	–	–	–	–	–	–	–
Cc1cc(Nc2nc(N[C@@H](C)c3ncc(F)cn3)ncc2Cl)n[nH]1 [UNC10302859A]	–	–	–	–	–	–	–	–	95.5	153.2	84.7	121.3	92.5	53.2	109.7	105.5
Cc1ccccc1C(=O)Nc1ccc(C(=O)N2CCCC(O)c3cc(Cl)ccc32)c(C)c1 (stereo not drawn) [UNC10302860A]	–	–	–	–	–	–	–	–	100.1	197.1	130.2	105.3	93.3	118.5	108.9	107.5
CC(C)(O)c1coc(S(=O)(=O)[N-]C(=O)Nc2c3c(cc4c2CCC4)CCC3)c1.[Na+] [UNC10302861A]	105.6	115.8	119.4	98.5	105.7	111.0	101.8	106.4	–	–	–	–	–	–	–	–
Cc1cc(SCc2sc(-c3ccc(C(F)(F)F)c(F)c3)nc2C)ccc1OCC(=O)O [UNC10302862A]	107.7	104.2	84.5	103.8	93.4	73.4	105.0	104.6	–	–	–	–	–	–	–	–
COc1cc(Nc2ncc(F)c(Nc3ccc4c(n3)N(COP(=O)([O-])[O-])C(=O)C(C)(C)O4)n2)cc(OC)c1OC.[Na+].[Na+] [UNC10302863A]	201.3	0.00651	80.8	86.8	124.3	16.5	113.6	22.9	–	–	–	–	–	–	–	–
CNC(=O)c1c(F)cccc1Nc1nc(Nc2cc3c(cc2OC)CCN3C(=O)CN(C)C)nc2[nH]ccc12 [UNC10302864A]	58.3	89.4	108.9	90.1	123.0	66.3	109.6	102.8	–	–	–	–	–	–	–	–
CNC(=O)CN1CCC(Oc2cc3c(Nc4cccc(Cl)c4F)ncnc3cc2OC)CC1 [UNC10302865A]	152.7	68.8	132.1	105.8	90.8	102.4	110.1	101.0	–	–	–	–	–	–	–	–
